Measured values from patent US9512175B2, “Macrocyclic inhibitors of flaviviridae viruses” (Gilead Sciences, Inc., priority 2012, dated 2016).
pIC50: −log10 of the molar value. Read-outs that look alike come from different tables or passages of the source.

Tests used:
[1] = system: HCV replicon (Replicon 1a); test: anti-HCV activity in Huh-7 cell line harboring a HCV replicon (Replicon 1a); type: cell-based; conditions: Hepatitis C virus, Huh-7, 72 h
cyclophilin A = cyclophilin A (Homo sapiens, UniProt P62937); test: Cyclophilin A TR-FRET competitive binding assay; conditions: IC50 ranges, competition with CsA-Cy5 for His-tagged CypA, two-hour incubation
cyclophilin A, sequence (P62937 whole entry, species assumed): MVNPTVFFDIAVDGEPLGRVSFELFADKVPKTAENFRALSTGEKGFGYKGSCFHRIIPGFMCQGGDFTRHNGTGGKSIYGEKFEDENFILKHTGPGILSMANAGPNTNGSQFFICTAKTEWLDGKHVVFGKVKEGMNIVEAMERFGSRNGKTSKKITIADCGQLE
Experimental: Cyclophilin A TR-FRET Competitive Binding Assay
Inhibitor potency was measured using a competitive binding assay with a time-resolved fluorescence resonance energy transfer (TR-FRET) readout. […] An IC50 value was calculated using a four-parameter logistic fit.

[2] = read-out: Replicon 1a % inhibition at 1 μM
[3] = read-out: Replicon 1a % inhibition at 1 μM, 1 μM, human hepatoma Huh-7 HCV replicon cells, 3 days, luciferase readout

| SMILES | inhibition at 1 µM [1, 2] [%] | pIC50 (cyclophilin A; read-out: TR-FRET) | inhibition at 1 µM [1, 3] [%] | pIC50 (cyclophilin A; TR-FRET) |
| --- | --- | --- | --- | --- |
| CC(C)[C@@H]1NC(=O)C(C)(C)/C=C/c2ccc3ccc(nc3c2)[C@@H](C(F)(F)F)NC(=O)[C@@H]2CCCN(N2)C(=O)[C@H](C)NC1=O [Compound 13] | 87 | > 7.00 | – | – |
| CC(C)[C@@H]1NC(=O)C/C=C/c2ccc3ncc(cc3c2)[C@@H](C)OC(=O)[C@@H]2CCCN(N2)C(=O)[C@H](C)NC1=O [Compound 14] | – | > 7.00 | 94 | – |
| CC(C)[C@@H]1NC(=O)C/C=C/c2cnc3ccc(cc3c2)[C@@H](C)OC(=O)[C@@H]2CCCN(N2)C(=O)[C@H](C)NC1=O [Compound 15] | – | > 7.00 | 99 | – |
| CC(C)[C@@H]1NC(=O)C/C=C/c2ccc3ccc(cc3n2)[C@@H](C)OC(=O)[C@@H]2CCCN(N2)C(=O)[C@H](C)NC1=O [Compound 16] | – | 6.00 to 7.00 | 94 | – |
| CC(C)[C@@H]1NC(=O)C(C)(C)/C=C/c2ccc3cnc(cc3c2)[C@@H](C)OC(=O)[C@@H]2CCCN(N2)C(=O)[C@H](C)NC1=O [Compound 17] | – | > 7.00 | 100 | – |
| CC(C)[C@@H]1NC(=O)C(C)(C)CCc2ccc3cnc(cc3c2)[C@@H](C)OC(=O)[C@@H]2CCCN(N2)C(=O)[C@H](C)NC1=O [Compound 18] | – | > 7.00 | 94 | – |
| CC[C@@H]1/C=C/c2cc3cc(ccc3cn2)[C@@H](C)OC(=O)[C@@H]2CCCN(N2)C(=O)[C@H](C)NC(=O)[C@H](C(C)C)NC1=O [Compound 19] | – | > 7.00 | 97 | – |
| CC1/C=C/c2cc3cc(ccc3cn2)[C@@H](C)OC(=O)[C@@H]2CCCN(N2)C(=O)[C@H](C)NC(=O)[C@H](C(C)C)NC1=O (stereo partly drawn) [Compound 20] | – | > 7.00 | 99 | – |
| CC(C)[C@@H]1NC(=O)[C@H](C)C/C=C/c2cc3cc(ccc3cn2)[C@@H](C)OC(=O)[C@@H]2CCCN(N2)C(=O)[C@H](C)NC1=O [Compound 21] | – | > 7.00 | 93 | – |
| CC(C)[C@@H]1NC(=O)C/C=C/c2cc3cc(ccc3cn2)[C@@H](C(F)(F)F)NC(=O)[C@@H]2CCCN(N2)C(=O)[C@H](C)NC1=O [Compound 23] | – | > 7.00 | 99 | – |
| CO[C@@H]1CC/C=C/c2ccc3c(c2)[C@@H](CC3)N(C)C(=O)[C@@H]2CCCN(N2)C(=O)[C@H](C)NC(=O)[C@H](C(C)C)NC(=O)[C@@H]1C [Compound 25] | 71 | – | – | 6.00 to 7.00 |
| CC(C)[C@@H]1NC(=O)[C@H](C)/C=C/c2ccc3ccc(nc3c2)[C@@H](C)OC(=O)[C@@H]2CCCN(N2)C(=O)[C@H](C)NC1=O [Compound 26] | 99 | – | – | > 7.00 |
| CC(C)[C@@H]1NC(=O)[C@@H](C)/C=C/c2ccc3ccc(nc3c2)[C@@H](C)OC(=O)[C@@H]2CCCN(N2)C(=O)[C@H](C)NC1=O [Compound 27] | 100 | – | – | > 7.00 |
| CO[C@@H]1CC/C=C/c2cccc(c2)C2CCCCN2C(=O)[C@@H]2CCCN(N2)C(=O)[C@H](C)NC(=O)[C@H](C(C)C)NC(=O)[C@@H]1C (stereo partly drawn) [Compound 28] | – | 6.00 to 7.00 | 56 | – |
| CC(C)[C@@H]1NC(=O)C/C=C/c2ccc3nnc(cc3c2)[C@@H](C)OC(=O)[C@@H]2CCCN(N2)C(=O)[C@H](C)NC1=O [Compound 32] | – | > 7.00 | 71 | – |
| CO[C@@H]1/C=C/c2cc3cc(ccc3cn2)[C@@H](C)OC(=O)[C@@]2(C)CCCN(N2)C(=O)[C@H](C)NC(=O)C(C(C)C)NC(=O)[C@@H]1C (stereo partly drawn) [Compound 33] | – | 5.00 to 6.00 | 14 | – |
| CC(C)[C@@H]1NC(=O)[C@H](C)C/C=C/COc2ccc(F)c(c2)[C@@H](C)OC(=O)C2CCCN(N2)C(=O)[C@H](C)NC1=O (stereo partly drawn) [Compound 35] | 94 | – | – | > 7.00 |
| CC(C)[C@@H]1NC(=O)[C@H](C)CCCCOc2ccc(F)c(c2)[C@@H](C)OC(=O)[C@@H]2CCCN(N2)C(=O)[C@H](C)NC1=O [Compound 36] | – | > 7.00 | 73 | – |
